pKd: −log10 of the molar value. Read-outs that look alike come from different tables or passages of the source. *1 amine or outer side, *2 acyl side, *3 side chain or, on linkers, in order; H or OH if unused. Where a SMILES comes first, the peptide text is derived from it. Bridges are numbered along the chain shown (N, C = ends). [ ]: non-standard residue; d: D form. The star is where a group is joined. hPhe(3-Cl-4-CF3) = N[C@@H](CCc1ccc(C(F)(F)F)c(Cl)c1)C(=O)O; X37 = O=C([C@H](Cc1ccc(C(F)(F)F)cc1)N(CC1CCC1)[*:1])[*:2]; NPrPhe(4-CF3) = CCCN[C@@H](Cc1ccc(C(F)(F)F)cc1)C(=O)O; NEtPhe(4-Me) = CCN[C@@H](Cc1ccc(C)cc1)C(=O)O; NMeGly(cPent) = CN[C@H](C(=O)O)C1CCCC1; Hyp = O=C(O)[C@@H]1C[C@@H](O)CN1; NMeD = CN[C@@H](CC(=O)O)C(=O)O; NMeL = CN[C@@H](CC(C)C)C(=O)O; Morpholide = C1CN(*)CCO1; Ac5c = NC1(C(=O)O)CCCC1; Aze = O=C(O)[C@@H]1CCN1; NEtG = CCNCC(=O)O; Sar = CNCC(=O)O
Key:
[1] = target: GDP-bound HRAS wild-type protein (Homo sapiens, UniProt P01112); experiment: Binding to HRAS by surface plasmon resonance (SPR), Single Cycle Kinetics; conditions: SPR, GDP-bound HRAS wild-type protein vs GDP-bound KRAS wild-type protein
Sequence of GDP-bound HRAS wild-type protein (P01112 whole entry): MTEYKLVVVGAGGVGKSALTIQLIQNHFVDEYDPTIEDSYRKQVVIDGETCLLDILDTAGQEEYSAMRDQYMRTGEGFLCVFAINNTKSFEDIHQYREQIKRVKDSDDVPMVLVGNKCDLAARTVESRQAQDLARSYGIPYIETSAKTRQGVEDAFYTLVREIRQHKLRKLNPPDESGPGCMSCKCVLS

[2] = target: GDP-bound KRAS wild-type protein (Homo sapiens, UniProt P01116); experiment: Binding to KRAS by surface plasmon resonance (SPR), Single Cycle Kinetics; conditions: GDP-bound KRAS wild-type protein, read-out: KRAS KD
Sequence of GDP-bound KRAS wild-type protein (P01116 whole entry): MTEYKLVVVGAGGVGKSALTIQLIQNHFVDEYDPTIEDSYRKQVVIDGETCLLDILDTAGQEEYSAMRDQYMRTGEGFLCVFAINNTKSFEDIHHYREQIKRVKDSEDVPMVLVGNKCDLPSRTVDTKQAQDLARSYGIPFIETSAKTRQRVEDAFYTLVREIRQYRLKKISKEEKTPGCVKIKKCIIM

[3] = target: GDP-bound NRAS wild-type protein (Homo sapiens, UniProt P01111); experiment: Binding to NRAS by surface plasmon resonance (SPR), Single Cycle Kinetics; conditions: SPR, GDP-bound NRAS wild-type protein vs GDP-bound KRAS wild-type protein
Sequence of GDP-bound NRAS wild-type protein (P01111 whole entry): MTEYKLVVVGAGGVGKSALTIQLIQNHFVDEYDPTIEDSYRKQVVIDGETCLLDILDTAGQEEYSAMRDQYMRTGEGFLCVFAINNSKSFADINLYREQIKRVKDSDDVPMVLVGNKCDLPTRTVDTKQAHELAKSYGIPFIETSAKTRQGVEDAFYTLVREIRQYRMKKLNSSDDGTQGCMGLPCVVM

[4] = SPR Single Cycle Kinetics, 1:1 binding model

SMILES	HRAS/KRAS (ratio of KD value for HRAS to KD value for KRAS) [1]	pKd [2, 4]	NRAS/KRAS (ratio of KD value for NRAS to KD value for KRAS) [3]	HRAS/KRAS (ratio of KD value with respect to HRAS to KD value with respect to KRAS) [1]	NRAS/KRAS (ratio of KD value with respect to NRAS to KD value with respect to KRAS) [3]	pKd ([2]; SPR, Single Cycle Kinetics)
CC[C@H](C)[C@@H]1NC(=O)[C@H](CC(C)C)N(C)C(=O)C[C@@H](C(=O)N2CCOCC2)N(C)C(=O)[C@H](C2CCCC2)N(C)C(=O)C2(CCCC2)NC(=O)[C@@H]2CCCN2C(=O)[C@H](CCc2ccc(C(F)(F)F)c(Cl)c2)NC(=O)CN(C)C(=O)[C@H](Cc2ccc(C(F)(F)F)cc2)N(CC2CCC2)C(=O)CN(C)C(=O)CN(C)C1=O [PP0123] ([NMeL]I[Sar][Sar][X37][Sar][hPhe(3-Cl-4-CF3)]P[Ac5c][NMeGly(cPent)][NMeD]-Morpholide; lactam N-11)	C (A compound having a KD ratio of 0.1 or more and less than 3 is denoted as C)	9.08	B (a compound having 3 or more and less than 10 is denoted as B)			
CCO[C@@H]1C[C@H]2C(=O)NC3(CCC3)C(=O)N(C)[C@@H](C3CCCC3)C(=O)N(C)[C@H](C(=O)N(C)C)CC(=O)N(C)[C@@H](CC3CCCCC3)C(=O)N[C@@H]([C@@H](C)CC)C(=O)N(C)CC(=O)N(C)[C@H]3CCCCN(C3=O)[C@@H](Cc3ccc(C(F)(F)F)cc3)C(=O)N(C)CC(=O)N[C@@H](CCc3cc(F)c(C(F)(F)F)c(F)c3)C(=O)N2C1 [PP0701]		10.77		B (a compound having 3 or more and less than 10 is denoted as B)	C (A compound having a KD ratio of 0.1 or more and less than 3 is denoted as C)	
CCC[C@H]1C(=O)N[C@@H]([C@@H](C)CC)C(=O)N2CCC[C@H]2C(=O)N(C)[C@H]2C/C=C\CCN(C2=O)[C@@H](CC2CCC(F)(F)CC2)C(=O)N(C)CC(=O)N[C@@H](CCc2ccc(C(F)(F)F)c(OC)c2)C(=O)N2C[C@H](OCC)C[C@H]2C(=O)N(C)C2(CCC2)C(=O)N(C)[C@@H](C(CC)CC)C(=O)N(C)[C@H](C(=O)N(C)C)CC(=O)N1C [PP2353]	A (a compound having 10 or more and less than 20 is denoted as A)		A (a compound having 10 or more and less than 20 is denoted as A)			8.39
CC[C@H](C)[C@@H]1NC(=O)[C@H](CC(C)C)N(C)C(=O)C[C@@H](C(=O)N2CCOCC2)N(C)C(=O)[C@H](C2CCCC2)N(C)C(=O)C2(CCCC2)NC(=O)[C@@H]2CCCN2C(=O)[C@H](CCc2ccc(C(F)(F)F)c(Cl)c2)NC(=O)CN(CC)C(=O)[C@H](Cc2ccc(C)cc2)N(CC)C(=O)CN(C)C(=O)CN(C)C1=O [PP0028] ([NMeL]I[Sar][Sar][NEtPhe(4-Me)][NEtG][hPhe(3-Cl-4-CF3)]P[Ac5c][NMeGly(cPent)][NMeD]-Morpholide; lactam N-11)	C (A compound having a KD ratio of 0.1 or more and less than 3 is denoted as C)	8.62	C (A compound having a KD ratio of 0.1 or more and less than 3 is denoted as C)			
C#CCN1CC(=O)N(C)[C@H]2C/C=C\CCN(C2=O)[C@@H](Cc2ccc(C)cc2)C(=O)N(C)CC(=O)N[C@@H](CCc2cc(F)c(C(F)(F)F)c(F)c2)C(=O)N2C[C@H](OCC)C[C@H]2C(=O)NC2(CC(C)(C)C2)C(=O)N(C)[C@@H](C2CCCC2)C(=O)N(C)[C@H](C(=O)N(C)C)CC(=O)N(C)[C@@H](CCC)C(=O)N[C@@H]([C@@H](C)CC)C1=O [PP2095]	A (a compound having 10 or more and less than 20 is denoted as A)		A (a compound having 10 or more and less than 20 is denoted as A)			9.82
CCCN1C(=O)CN(C)C(=O)[C@@H]2CCN2C(=O)[C@H]([C@@H](C)CC)NC(=O)[C@H](CC(C)C)N(C)C(=O)C[C@@H](C(=O)N2CCOCC2)N(C)C(=O)[C@H](C2CCCC2)N(C)C(=O)C2(CCCC2)NC(=O)[C@@H]2C[C@@H](OCC)CN2C(=O)[C@H](CCc2ccc(C(F)(F)F)c(Cl)c2)NC(=O)CN(C)C(=O)[C@@H]1Cc1ccc(C(F)(F)F)cc1 [PP0310] ([NMeL]I[Aze][Sar][NPrPhe(4-CF3)][Sar][hPhe(3-Cl-4-CF3)][Hyp](Et)[Ac5c][NMeGly(cPent)][NMeD]-Morpholide; lactam N-11)	C (A compound having a KD ratio of 0.1 or more and less than 3 is denoted as C)	9.35	B (a compound having 3 or more and less than 10 is denoted as B)			
CC[C@H](C)[C@@H]1NC(=O)[C@H](CC(C)C)N(C)C(=O)C[C@@H](C(=O)N2CCOCC2)N(C)C(=O)[C@H](C2CCCCC2)N(C)C(=O)C2(CCCC2)NC(=O)[C@@H]2CCCN2C(=O)[C@H](CCc2cc(F)c(C(F)(F)F)c(F)c2)NC(=O)CN(C)C(=O)[C@H](Cc2ccc(C(F)(F)F)cc2)N2CCCC[C@@H](C2=O)N(C)C(=O)CN(C)C1=O [PP0567]		9.68		B (a compound having 3 or more and less than 10 is denoted as B)	B (a compound having 3 or more and less than 10 is denoted as B)	

Source: patent publication US20240158446A1, “CYCLIC COMPOUND HAVING SELECTIVE INHIBITORY ACTION ON KRAS OVER HRAS AND NRAS” (CHUGAI SEIYAKU KABUSHIKI KAISHA, priority 2021, published 2024)
